These are literature values, as cited in patent US10772323B2, “Benzoic acid herbicide composition” (NUFARM AUSTRALIA LIMITED, priority 2015, dated 2020).

For this series the following is noted: acid form; 25° C.

For `COc1c(Cl)ccc(Cl)c1C(=O)O` [dicamba, 3,6-dichloro-2-methoxybenzoic acid], the water solubility result is “about 4500 mg/L”.
